# pIC50: −log10 of the molar value.
# Test system: A549
# Test: Antiproliferative activity against human A549 cells harboring KRAS G12S point mutant after 72 hrs by SRB assay
# Details: A549, 72 h
row,SMILES,pIC50
1,CCC(Oc1ccc(-c2nnc(CCc3ccc(OC)cc3)n2Cc2ccccc2)cc1)C(=O)Nc1cnn(C)c1 (stereo not drawn),< 4.30
2,CC(C)Cc1nnc(SCc2ccc(C(=O)NC3CCCCC3)cc2)n1Cc1ccccc1,4.49
3,c1ccc(Cn2c(-c3ccc(OC[C@H](C4CCNCC4)n4c(-c5ccccc5)nc5ccccc54)cc3)nc3ccccc32)cc1,5.19
4,CC(C)Cc1nnc(SCc2ccc(C(=O)Nc3ccc4ncccc4c3)cc2)n1Cc1ccccc1,4.99
5,COc1ccc(CSc2nnc(-c3ccc(OCC(=O)NC4CCCCC4)cc3)n2Cc2ccccc2)cc1,4.71
6,COc1ccc(CCc2nnc(-c3ccc(OC(C)C(=O)Nc4cnn(C)c4)cc3)n2Cc2ccccc2)cc1 (stereo not drawn),< 4.30
7,COc1ccc(CSc2nnc(-c3ccc(OCC(=O)Nc4ccc(N(C)C)cc4)cc3)n2Cc2ccccc2)cc1,4.77
8,COc1ccc(CSc2nnc(-c3ccc(OCC(=O)Nc4cnn(C)c4)cc3)n2Cc2ccccc2)cc1,4.44
9,COc1ccc(CCc2nnc(-c3ccc(OCC(=O)Nc4cnn(C)c4)cc3)n2Cc2ccccc2)cc1,4.62
10,CC(C)Cc1nnc(SCc2ccc(C(=O)Nc3cccc(F)c3)cc2)n1Cc1ccccc1,4.69
11,COc1ccc(CSc2nnc(-c3ccc(OCC(=O)Nc4cc(C)nn4C)cc3)n2Cc2ccccc2)cc1,4.74
12,COc1ccc(CCc2nnc(-c3ccc(OC(C)(C)C(=O)Nc4cnn(C)c4)cc3)n2Cc2ccccc2)cc1,< 4.30
13,COc1ccc(CSc2nnc(-c3ccc(OCC(=O)Nc4cccnc4)cc3)n2Cc2ccccc2)cc1,4.95

# Source: ChEMBL document CHEMBL4411282, “Fragment-based drug discovery of triazole inhibitors to block PDEδ-RAS protein-protein interaction” (Eur J Med Chem, 2019)
